Assay results reported in patent US6979686B1, “Substituted pyrazoles as p38 kinase inhibitors” (Pharmacia Corporation, priority 2001, dated 2005).
Read-outs that look alike come from different tables or passages of the source.

Legend:
[1] = tested on: TNF-α, U937 human histiocytic lymphoma cell line; assay: LPS stimulation of TNF production by U937 cells; type: cell-based; details: for inhibition at 1 µM: U-937, @ 1.0 uM, read-out: U937 Cell % inhib @ conc.; for U937 Cell % inhib @ conc. / U937 Cell % inhib @ conc. (uM): @ 1.0 uM
Procedure: Maintenance and Differentiation of the U937 Human Histiocytic Lymphoma Cell Line:
Fifty million cells in 100 ml media were induced to terminal monocytic differentiation by 24 hour incubation with 20 ng/ml phorbol 12-myristate 13-acetate (Sigma). The cells were washed by centrifugation (200×g for 5 min) and resuspended in 100 ml fresh medium. After 24-48 hours, the cells were harvested, centrifuged, and resuspended in culture medium at 2 million cells/ml.
LPS Stimulation of TNF Production by U937 Cells:
Compounds were prepared as 10 mM stock solutions in DMSO and diluted in culture medium to yield a final DMSO concentration of 0.1% in the cell assay. LPS (E coli, 100 ng/ml final concentration) was then added at a volume of 0.02 ml. After 4 hour incubation at 37° C., the amount of TNF-α released in the culture medium was quantitated by ELISA. Inhibitory potency is expressed as IC50 (μM).
In vitro whole cell assay for measuring the ability of the compounds to inhibit TNF production in human U937 cells stimulated with LPS are shown in the column identified as: • “U937 Cell IC50, uM or % inhib @ conc., (uM)”

human p38 kinase alpha = biological target: T1, human p38 kinase alpha (Homo sapiens, UniProt Q16539); assay: p38 kinase in vitro assay, phosphorylation of biotinylated PHAS-I with 32P-ATP; type: biochemical; details: for IC50: read-out: P38 alpha kinase IC50; for inhibition at 1 µM: read-out: P38 alpha kinase % inhib @ conc.
T1 construct: GST (N, cleaved yes); made in house; host or cells: E. coli DH10B
T1 sequence (Q16539 whole entry): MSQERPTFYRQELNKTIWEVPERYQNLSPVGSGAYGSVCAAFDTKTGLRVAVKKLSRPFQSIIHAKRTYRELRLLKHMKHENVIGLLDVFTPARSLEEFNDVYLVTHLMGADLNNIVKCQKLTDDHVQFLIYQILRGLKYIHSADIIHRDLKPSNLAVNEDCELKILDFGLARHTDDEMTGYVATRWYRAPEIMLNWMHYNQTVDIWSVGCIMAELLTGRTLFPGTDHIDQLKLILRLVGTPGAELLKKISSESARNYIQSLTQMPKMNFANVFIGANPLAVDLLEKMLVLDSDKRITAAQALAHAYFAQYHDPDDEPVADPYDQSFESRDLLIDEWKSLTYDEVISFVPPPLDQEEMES

[2] = Homo sapiens, TNF production, U937 cells stimulated with LPS
[3] = TNF production, U937 cells stimulated with LPS
[4] = TNF production in human U937 cells stimulated with LPS
[5] = in vitro P38-alpha kinase inhibition

Cc1cccc(C(=O)NCc2[nH]nc(-c3ccc(F)cc3)c2-c2ccncc2)c1 [Example B-0290]
inhibition at 1 µM [1, 2]: 44%

O=C(NCc1[nH]nc(-c2ccc(F)cc2)c1-c1ccncc1)c1ccc(F)cc1C(F)(F)F [Example B-0062]
U937 Cell % inhib @ conc. [1, 3]: 36.0% @

CC1(C)C2CCC1(CS(=O)(=O)NCc1[nH]nc(-c3ccc(F)cc3)c1-c1ccncc1)C(=O)C2 (centres unmarked) [Example B-0226]
inhibition at 1 µM [1, 2]: 20%

CC(NC(=O)c1ccc(Cl)cc1Cl)c1[nH]nc(-c2ccc(F)cc2)c1-c1ccncc1 (centres unmarked) [Example B-0693]
U937 Cell % inhib @ conc. (uM) [1, 4]: 28.0% @

O=C(NC(Cc1ccccc1)c1[nH]nc(-c2ccc(F)cc2)c1-c1ccncc1)c1ccccn1 (centres unmarked) [Example B-0855]
U937 Cell % inhib @ conc. (uM) [1, 3]: 8.0% @

CC1(C)C2CCC1(CS(=O)(=O)NCc1[nH]nc(-c3ccc(F)cc3)c1-c1ccncc1)C(=O)C2 (centres unmarked) [Example B-0227]
U937 Cell % inhib @ conc. [1, 3]: 1.0% @

Cc1[nH]nc(-c2ccc(N(C)C)cc2)c1-c1ccncc1 [Example A-37]
IC50 ([1]; Table 5, LPS-stimulated U937 cells, TNF-α, read-out: U937 Cell Assay IC50): 99 nM

O=C(NCCCc1[nH]nc(-c2ccc(F)cc2)c1-c1ccncc1)NCCc1c[nH]cn1 [Example B-1306]
IC50 ([1]; Homo sapiens, U-937, TNF production, human U937 cells stimulated with LPS, read-out: U937 Cell IC50): > 1000 nM

C[C@@H](NC(=O)N[C@H](C)c1[nH]nc(-c2ccc(F)cc2)c1-c1ccncc1)c1ccccc1 [Example B-0417]
U937 Cell % inhib @ conc. (uM) [1, 4]: 28.0% @

O=C(NCCCc1[nH]nc(-c2ccc(F)cc2)c1-c1ccncc1)NCc1ccccn1 [Example B-1304]
inhibition at 1 µM ([1]; Homo sapiens, TNF production, LPS-stimulated U937 cells): 10%

Cc1ccc(S(=O)(=O)NC(Cc2ccccc2)C(=O)NCCCc2[nH]nc(-c3ccc(F)cc3)c2-c2ccncc2)cc1 (centres unmarked) [Example B-1188]
U937 Cell % inhib @ conc. (uM) [1, 3]: 36.0% @

N[C@H]1CC[C@@H](c2[nH]nc(-c3ccc(C(F)(F)F)cc3)c2-c2ccncc2)CC1 [Example C-101, 5-cis-(4-AMINOCYCLOHEXYL)-4-(4-PYRIDYL)-3-[4-(TRIFLUOROMETHYL)PHENYL]PYRAZOLE]
IC50 (human p38 kinase alpha): 83 nM

Cc1c(-c2ccncc2)c(-c2ccc(F)cc2)nn1CC(=O)NCCC#N [Example B-2314]
IC50 (human p38 kinase alpha; in vitro P38-alpha kinase): 11000 nM

Cc1c(-c2ccncc2)c(-c2ccc(F)cc2)nn1CC(=O)Nc1ccc(C2CCCCC2)cc1 [Example B-2427]
P38 alpha kinase IC50, uM or % inhib @ conc. (uM): % inhib (human p38 kinase alpha; @ 10.0 uM): 87.0% @

COc1cc(CNC(=O)Cn2nc(-c3ccc(F)cc3)c(-c3ccncc3)c2C)cc(OC)c1 [Example B-2305]
IC50 (human p38 kinase alpha; in vitro P38-alpha kinase): 540 nM

CCC(=O)N1CCC(c2[nH]nc(-c3ccc(F)cc3)c2-c2ccncc2)CC1 [Example B-1420]
IC50 (human p38 kinase alpha; in vitro P38-alpha kinase): < 100 nM

CC(NS(=O)(=O)c1cccc(Br)c1)c1[nH]nc(-c2ccc(F)cc2)c1-c1ccncc1 (centres unmarked) [Example B-0632]
IC50 (human p38 kinase alpha; [5]): < 100 nM

Cc1c(-c2ccncc2)c(-c2ccc(F)cc2)nn1CC(=O)N1Cc2ccsc2CC1c1ccc(Cl)cc1 (centres unmarked) [Example B-2410]
P38 alpha kinase IC50, uM or % inhib @ conc. (uM): % inhib (human p38 kinase alpha; @ 10.0 uM): 33.0% @

O=S(=O)(NCCc1[nH]nc(-c2ccc(F)cc2)c1-c1ccncc1)c1ccccc1Cl [Example B-1091]
IC50 (human p38 kinase alpha; [5]): < 100 nM

O=S(=O)(NCCc1[nH]nc(-c2ccc(F)cc2)c1-c1ccncc1)c1ccc(-c2ccon2)s1 [Example B-1113]
IC50 (human p38 kinase alpha; [5]): < 100 nM

CC(=O)N1CCN(C(=O)Cn2nc(-c3ccc(F)cc3)c(-c3ccncc3)c2C)CC1 [Example B-2380]
P38 alpha kinase % inhib @ conc. (human p38 kinase alpha; @ 100.0 uM): 81% @

CC(NC(=O)NC(Cc1ccccc1)c1[nH]nc(-c2ccc(F)cc2)c1-c1ccncc1)c1ccccc1 (centres unmarked) [Example B-0739]
IC50 (human p38 kinase alpha; [5]): 4100 nM

O=S(=O)(NCCCc1[nH]nc(-c2ccc(F)cc2)c1-c1ccncc1)c1ccccc1F [Example B-1197]
P38 alpha kinase % inhib @ conc. (human p38 kinase alpha; @ 1.0 uM): 77.0% @

O=C(NCCCc1[nH]nc(-c2ccc(F)cc2)c1-c1ccncc1)c1ccccn1 [Example B-1184]
P38 alpha kinase % inhib @ conc. (uM) (human p38 kinase alpha; @ 1.0 uM): 69.0% @

O=C(NCCCc1[nH]nc(-c2ccc(F)cc2)c1-c1ccncc1)c1cccc(C(F)(F)F)c1 [Example B-1324]
IC50 (human p38 kinase alpha; in vitro P38-alpha kinase): 160 nM

O=C(c1cccc(F)c1F)N1CCC(c2[nH]nc(-c3ccc(F)cc3)c2-c2ccncc2)CC1 [Example B-1411]
IC50 (human p38 kinase alpha; in vitro P38-alpha kinase): < 100 nM

CC(C)S(=O)(=O)NCCCc1[nH]nc(-c2ccc(F)cc2)c1-c1ccncc1 [Example B-1192]
P38 alpha kinase % inhib @ conc. (uM) (human p38 kinase alpha; @ 1.0 uM): 84.0% @

O=C(NCCc1[nH]nc(-c2ccc(F)cc2)c1-c1ccncc1)C1CC1 [Example B-0989]
P38 alpha kinase % inhib @ conc. (uM) (human p38 kinase alpha; @ 1.0 uM): 85.0% @

CC(C)C(=O)NCCc1[nH]nc(-c2ccc(F)cc2)c1-c1ccncc1 [Example B-0983]
P38 alpha kinase % inhib @ conc. (uM) (human p38 kinase alpha; @ 1.0 uM): 75.0% @

CCCCOc1ccc(C(=O)NCc2[nH]nc(-c3ccc(F)cc3)c2-c2ccncc2)cc1 [Example B-0041]
inhibition at 1 µM (human p38 kinase alpha; @ 1.0 uM): 65%

CCN(Cc1c(F)cccc1Cl)C(=O)Cn1nc(-c2ccc(F)cc2)c(-c2ccncc2)c1C [Example B-2367]
P38 alpha kinase % inhib @ conc. (human p38 kinase alpha; @ 10.0 uM): 46.0% @

O=S(=O)(NCCc1[nH]nc(-c2ccc(F)cc2)c1-c1ccncc1)c1c(Cl)cccc1Cl [Example B-1081]
IC50 (human p38 kinase alpha; [5]): < 100 nM

NS(=O)(=O)c1ccc(CCNC(=O)NCCCc2[nH]nc(-c3ccc(F)cc3)c2-c2ccncc2)cc1 [Example B-1307]
IC50 (human p38 kinase alpha; in vitro P38-alpha kinase): 9 nM

O=C(NCCCc1[nH]nc(-c2ccc(F)cc2)c1-c1ccncc1)c1cc(C(F)(F)F)ccc1F [Example B-1335]
IC50 (human p38 kinase alpha; in vitro P38-alpha kinase): 97 nM

O=C(NCc1[nH]nc(-c2ccc(F)cc2)c1-c1ccncc1)c1cc(Cl)cc(Cl)c1 [Example B-0020]
inhibition at 1 µM (human p38 kinase alpha; @ 1.0 uM): 73%

O=C(NC(Cc1ccccc1)c1[nH]nc(-c2ccc(F)cc2)c1-c1ccncc1)c1ccc(I)cc1 (centres unmarked) [Example B-0807]
IC50 (human p38 kinase alpha; [5]): 10800 nM

COc1ccc(S(=O)(=O)NC(C)c2[nH]nc(-c3ccc(F)cc3)c2-c2ccncc2)cc1OC (centres unmarked) [Example B-0577]
IC50 (human p38 kinase alpha; [5]): 91 nM

O=S(=O)(NCCc1[nH]nc(-c2ccc(F)cc2)c1-c1ccncc1)c1cccc(Br)c1 [Example B-1083]
IC50 (human p38 kinase alpha; [5]): < 100 nM

COc1cccc(C(=O)NC(Cc2ccccc2)c2[nH]nc(-c3ccc(F)cc3)c2-c2ccncc2)c1 (centres unmarked) [Example B-0824]
IC50 (human p38 kinase alpha; [5]): 3410 nM

CC(C)=CC(=O)NC(Cc1ccccc1)c1[nH]nc(-c2ccc(F)cc2)c1-c1ccncc1 (centres unmarked) [Example B-0846]
IC50 (human p38 kinase alpha; [5]): 1800 nM

CC(NS(=O)(=O)c1ccc(Cl)cc1)c1[nH]nc(-c2ccc(F)cc2)c1-c1ccncc1 (centres unmarked) [Example B-0610]
IC50 (human p38 kinase alpha; [5]): < 100 nM

O=C(NCCCc1[nH]nc(-c2ccc(F)cc2)c1-c1ccncc1)N1CCCC1 [Example B-1209]
P38 alpha kinase % inhib @ conc. (human p38 kinase alpha; @ 1.0 uM): 86.0% @

O=S(=O)(c1ccc(Br)cc1)N1CCC(c2[nH]nc(-c3ccc(F)cc3)c2-c2ccncc2)CC1 [Example B-1472]
IC50 (human p38 kinase alpha; in vitro P38-alpha kinase): 930 nM

COc1ccc(NC(=O)NCCc2[nH]nc(-c3ccc(F)cc3)c2-c2ccncc2)cc1 [Example B-1047]
P38 alpha kinase % inhib @ conc. (uM) (human p38 kinase alpha; @ 1.0 uM): 72.0% @

O=C(NCCCc1[nH]nc(-c2ccc(F)cc2)c1-c1ccncc1)N1CCOCC1 [Example B-1210]
P38 alpha kinase % inhib @ conc. (human p38 kinase alpha; @ 1.0 uM): 82.0% @

CC(NS(=O)(=O)C(F)(F)F)c1[nH]nc(-c2ccc(F)cc2)c1-c1ccncc1 (centres unmarked) [Example B-0568]
IC50 (human p38 kinase alpha; [5]): 1220 nM

O=C(c1ccccc1I)N1CCC(c2[nH]nc(-c3ccc(F)cc3)c2-c2ccncc2)CC1 [Example B-1359]
IC50 (human p38 kinase alpha; in vitro P38-alpha kinase): 5 nM

CC(NS(=O)(=O)c1cccc2c(N(C)C)cccc12)c1[nH]nc(-c2ccc(F)cc2)c1-c1ccncc1 (centres unmarked) [Example B-0621]
IC50 (human p38 kinase alpha; [5]): 360 nM

O=S(=O)(NCCCc1[nH]nc(-c2ccc(F)cc2)c1-c1ccncc1)c1cc(S(=O)(=O)c2ccccc2)cs1 [Example B-1289]
IC50 (human p38 kinase alpha; in vitro P38-alpha kinase): 730 nM

O=S(=O)(c1cccs1)N1CCC(c2[nH]nc(-c3ccc(F)cc3)c2-c2ccncc2)CC1 [Example B-1437]
IC50 (human p38 kinase alpha; in vitro P38-alpha kinase): 300 nM
